Laboratory results taken from PubChem BioAssay (NCI).
Values joined by “and” are separate entries in the source; they are usually repeats but may differ in a detail not shown here. Equal values may be shown once.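 Assay format: 96-well plates, 48-hour exposure. GI50 marks 50% less growth. TGI is the concentration that stops growth completely.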

Key:
Assay in all cases: NCI anticancer screen, dose series, 48 h
COLO 205 colon = test system: COLO 205 colon
UACC-62 melanoma = test system: UACC-62 melanoma
HCC-2998 colon = test system: HCC-2998 colon
UACC-257 melanoma = test system: UACC-257 melanoma
SNB-19 CNS = test system: SNB-19 CNS
KM12 colon = test system: KM12 colon
BT-549 breast = test system: BT-549 breast
NCI-H226 lung = test system: NCI-H226 lung
SR leukemia = test system: SR leukemia
DU-145 prostate = test system: DU-145 prostate

Row | SMILES | TGI (COLO 205 colon) | TGI (UACC-62 melanoma) | TGI (HCC-2998 colon) | TGI (UACC-257 melanoma) | TGI (SNB-19 CNS) | TGI (KM12 colon) | GI50 (COLO 205 colon) | GI50 (BT-549 breast) | GI50 (UACC-257 melanoma) | GI50 (NCI-H226 lung) | TGI (NCI-H226 lung) | GI50 (SNB-19 CNS) | GI50 (KM12 colon) | TGI (SR leukemia) | GI50 (DU-145 prostate) | TGI (DU-145 prostate) | GI50 (UACC-62 melanoma) | TGI (BT-549 breast) | GI50 (HCC-2998 colon)
1 | O=C(N/C(=C\c1ccc([N+](=O)[O-])cc1)c1nc2ccccc2s1)c1ccccc1 | > 100 µM | 48.3 µM | > 100 µM | 85.2 µM | > 100 µM | 92.1 µM |  |  |  |  |  |  |  |  |  |  |  |  | 
2 | CCCCCCCCCCCC/C=C\CC[C@@H](O)[C@H](O)CC[C@H](O)[C@@H]1CC[C@@H](CCCCCCCC2=C[C@H](C)OC2=O)O1 | 8.36 µM and 22.9 µM | 6.45 µM | 37.1 µM | 4.21 µM and 19.6 µM | 29.3 µM | 46 µM | 7.21 µM | 12.8 µM | 1.94 µM | 13.3 µM | 34.3 µM | 9.85 µM | 12.9 µM |  |  |  |  |  | 
3 | COC(=O)CC1(O)C(=O)OCc2c1cc1n(c2=O)Cc2c-1nc1ccccc1c2OC (configuration not stated) | > 100 µM | 2.29 µM | > 100 µM | > 100 µM | 66.2 µM | > 100 µM |  |  |  |  | 0.688 µM |  |  | < 0.0136 µM |  |  |  |  | 
4 | C=CCNC(=S)NNC(=O)c1c(C)nc2sccn12 | > 100 µM | > 100 µM | > 100 µM | > 100 µM | > 100 µM | > 100 µM |  |  |  |  | > 100 µM |  |  | > 100 µM |  |  |  |  | 
5 | CCN(CC)CCOC(COc1cc(C)cc(C)c1)COc1cc(C)cc(C)c1 | 3.52 µM | 4.61 µM | 3.5 µM | 17.2 µM | 7.36 µM | 11.7 µM | 1.65 µM | 6.12 µM | 4.89 µM | 7.16 µM | 23.9 µM | 2.3 µM | 3.04 µM |  | 3.4 µM | 13.4 µM | 1.74 µM | 20.7 µM | 1.72 µM
6 | CC(=O)CCC1(c2ccccc2)OC(=O)C(C#N)=C1c1ccccc1 (configuration not stated) | > 100 µM | > 100 µM | > 100 µM | > 100 µM | > 100 µM | > 100 µM |  |  |  |  |  |  |  |  |  |  |  |  | 
7 | CC1[C@@]2(CCC(C)(C)O2)O[C@@H]2C=C3C4CCC5Cc6nc7c(nc6C[C@@]5(C)C4C[C@H](O)[C@@]3(C)[C@]12O)CC1CCC2C3=C[C@H]4O[C@@]5(O[C@@](C)(CO)C[C@@H]5O)C(C)[C@@]4(O)[C@]3(C)[C@@H](O)CC2[C@]1(C)C7 (some centres not stated) | 0.472 µM and 0.0525 µM |  | 0.86 µM | 0.358 µM and 0.0847 µM | 0.808 µM and 0.82 µM | 0.624 µM and 0.572 µM | 0.0141 µM |  | 0.0265 µM | 0.0107 µM | 0.411 µM and 0.806 µM | 0.041 µM | 0.0446 µM |  |  |  | 0.00387 µM |  | 0.401 µM
8 | Cc1ccc(NCCNCC(C)(C)O)c2c(=O)c3ccc(Cl)cc3sc12 | 2.92 µM | 3.42 µM | 2.91 µM | 3.44 µM | 3.27 µM | 3.13 µM | 1.34 µM |  | 1.93 µM |  |  | 1.67 µM | 1.63 µM |  | 1.67 µM | 3.08 µM | 1.81 µM |  | 1.38 µM
9 | CN1C2C=CC(=O)C1C1C(=O)N(c3ccccc3)C(=O)C12 (configuration not stated) | 22 µM | 24.3 µM | 29.3 µM | 7.47 µM | 29.5 µM | 18.4 µM | 7.81 µM |  | 2.42 µM | 17.6 µM | 57.3 µM | 13.3 µM | 5.17 µM |  | 2.34 µM | 6.69 µM | 11.5 µM |  | 13.3 µM
10 | CCCCCCCCCCCCCCCCCc1nc(Cl)nc(Cl)c1Cl | > 100 µM | > 100 µM | > 100 µM |  | > 100 µM | > 100 µM |  |  |  |  | 34.6 µM |  |  | > 100 µM |  | > 100 µM |  |  | 
11 | CC(C)c1ccc(O)c(Cc2cc(C(C)C)cc(Cc3cc(C(C)C)ccc3O)c2O)c1 | 12.3 µM | 8.48 µM | 3.2 µM | 3.41 µM | 3.12 µM | 3.74 µM |  |  |  |  | 2.93 µM |  |  | 4.45 µM |  |  |  |  | 
12 | OC12CCC3(OC4CCCCO4)c4ccccc4C3C1c1ccccc12 (configuration not stated) | > 100 µM | > 100 µM |  | > 100 µM | > 100 µM | > 100 µM |  |  |  |  | > 100 µM |  |  | > 100 µM |  |  |  |  | 
13 | Cc1cc(Cl)ccc1N=C1NC(=O)C(CC(=O)Nc2cccc(Cl)c2)S1 (configuration not stated) | > 100 µM | > 100 µM | > 100 µM | > 100 µM | > 100 µM | > 100 µM |  |  |  |  | > 100 µM |  |  |  |  |  |  |  | 
14 | Cc1ccc(C)c2c1C1CCCCC3(OCCCO3)C21O (configuration not stated) | > 100 µM | > 100 µM | > 100 µM | > 100 µM | > 100 µM | > 100 µM |  |  |  |  | > 100 µM |  |  |  |  |  |  |  | 
15 | O=c1ccc(N=Nc2ccccc2)ccc1O | 31.7 µM | 25.4 µM |  | 51.7 µM | > 100 µM | 24.9 µM |  |  |  |  | 24.3 µM |  |  | 22.2 µM |  | 39.3 µM |  | 56.6 µM | 
16 | COc1cc2ncn(-c3cc(OCc4ccccc4C(F)(F)F)c(C(N)=O)s3)c2cc1OC | > 25 µM | > 8.39 µM | > 25 µM | > 25 µM | > 19.3 µM | > 25 µM | 0.117 µM | 1.64 µM | > 5.96 µM | 1.01 µM | > 25 µM | 2.4 µM | 0.0958 µM |  | 0.0924 µM | 0.407 µM | 0.168 µM | > 19.5 µM | 0.276 µM
17 | Nc1ncn([C@H]2CC(O)[C@@H](CO)S2)c(=O)n1 (some centres not stated) | > 100 µM | > 100 µM | > 100 µM |  | > 100 µM | > 100 µM | 0.839 µM | 8.27 µM |  | 20.3 µM | > 100 µM | 16.2 µM | 3.27 µM |  | 2.27 µM | > 100 µM | 8.51 µM | > 100 µM | 2.44 µM
18 | COc1cc(N=Nc2cc(Cc3ccc(N(C)C)cc3)c(N)cc2N(C)C)c2ncccc2c1 | 1.21 µM | 1.83 µM | 2.66 µM | 5.22 µM | 3.71 µM | 2.31 µM | 0.176 µM | 1.41 µM | 0.438 µM | 0.754 µM | 8.28 µM | 0.577 µM | 0.646 µM |  | 0.59 µM | 2.17 µM | 0.42 µM | 5.63 µM | 1.16 µM
19 | N#C/C(=C\c1ccc(O)cc1)C(N)=O | > 100 µM | > 100 µM | > 100 µM | > 100 µM | > 100 µM | > 100 µM |  |  |  |  | > 100 µM |  |  |  |  |  |  |  | 
